Results reported in patent US20250333733A1, “NOVEL TARGETS AGAINST OVARIAN CANCER” (UNIVERSITY OF PUERTO RICO, priority 2022, published 2025).

Columns and labels:
OVCAR3CIS cells [1] = experiment: Matrigel transwell invasion assay; assay type: cell-based; details: vs NC-siRNA
Method: Cell invasion was measured using the Matrigel transwell method. OVCAR3CIS (3.0×10^4 cells/mL) or SKOVip1CIS (3.5×10^4 cells/mL) were seeded into 10 cm Petri dishes and transfected with siRNAs. Twenty-four hours later, serum-free matrigel (BD Biosciences CA, USA) was added onto the upper chambers of 24-well plates and incubated at 37° C. for polymerization. Transfected cells were collected and resuspended in serum-free and re-seeded onto the Matrigel-coated chambers. Medium containing 10% FBS was added to the lower area of the wells, and the plates incubated for 48 hours at 37° C. The medium was removed, and cells that invaded through the matrigel fixed and stained using ProtocolHema 3 Stain Set (Fisher Scientific MI, USA). Invaded cells were microscopically counted using a digital camera to capture images at a 20× resolution. The percentage of cell invasion was calculated using the NC-SIRNA condition as 100% cell invasion.

CASC10 = experiment: RT-qPCR of CASC10 expression after siRNA transfection in SKOV3ip1 cells; assay type: cell-based, human; details: SKOV3ip1 cells as printed
Method: SiRNA ON-TARGET plus SMARTpool (a mixture of 4 siRNA as a single tube) and a negative control siRNA (NC-siRNA) (Sigma-Aldrich) were used for transfection studies. CASC10, was targeted by using two siRNAs targeting different regions of the CASC10 RNA (e.g., CASC10-siRNA (1) and CASC10-siRNA (2)). OVCAR3CIS or SKOV3ip1CIS cells were seeded into 12-well plates at 3.0×10^4 cells/mL. The next day, siRNAs were mixed with HiPerfect transfection reagent (Qiagen, Valencia, CA) at a 1:2 ratio (SIRNA: HiPerfect) in serum and antibiotic-free Opti-MEM medium (Gibco) and added to the cells. After twenty-four hours the media was replaced by regular culture media, and cells were cultured and used for further experiments. To assess siRNA transfection efficiency, cells were collected 24 hours after siRNA transfection.
A custom-made 384-well plate containing pre-designed forward and reverse primers was purchased from Bio-Rad (CA, USA). Total RNA was isolated from OVCAR3 and OVCAR3CIS cells using the GenElute Mammalian Total RNA Mini Kit (Millipore-Sigma, MO, USA) following the manufacturer's instructions. […] Fold-changes and cycle threshold (Ct) values were calculated by the instrument's internal software relative to OVCAR3 cells and normalized to B-actin along with controls for gDNA, PCR reaction, RT reaction, and RNA quality.

OVCAR3CIS cells [2] = experiment: Cell viability, Alamar blue, siRNA alone or with cisplatin; assay type: cell-based; details: OVCAR3CIS, vs NC-siRNA
Method: OVCAR3CIS cells (3.0×10^4 cells/mL) or SKOV3ip1CIS (3.0×10^4 cells/mL) were seeded into 12-well plates. […] The next day, 400 cells (OVCAR3CIS) or 1,000 cells (SKOV3ip1CIS) were seeded into 6-well plates and incubated for seven days, fixed and stained with 0.5% crystal violet in methanol. Colonies of at least 50 cells were counted using a light microscope (CKX41: Olympus, Center Valley, PA, USA) with a total magnification of 40x. For cell viability assays, OVCAR3 and OVCAR3CIS (3.0×10^4 cells/mL) or SKOV3ip1and SKOV3ip1CIS (3.5×10^4 cells/mL) were seeded into 96-well plates, and 24 hours later, siRNA transfection was performed as described above. The next day, the transfection mix was replaced with cisplatin (CIS) (2.5 uM final concentration dissolved in regular cell culture media) and after forty-eight hours, the medium was removed, and Alamar blue dye (Invitrogen, Thermo Fisher Scientific, Eugene, OR, USA) was added following the manufacturer's instructions. Optical density (OD) was measured, and percentages of cell viability were calculated after blank OD subtraction. Untreated cells were assessed as 100% cell viability.

SKOV3IP1CIS = experiment: Cell cycle progression by flow cytometry; assay type: cell-based, human; details: 48 hours post-transfection
Method: To assess cell cycle progression, OVCAR3CIS (3.0×10^4 cells/mL) or SKOV3ip1CIS (3.5×10^4 cells/mL) were seeded into 10 cm Petri dishes and transfected with NC-siRNA or CASC10-siRNA (2). Forty-eight hours later, attached cells were collected, washed in ice-cold PBS, fixed with 70% cold ethanol, and stored at 4° C. Cells were then washed with ice-cold PBS, resuspended in propidium iodide (PI)/RNase Staining Buffer, incubated in the dark for 15 minutes at room temperature, and then analyzed by flow cytometry in BD C6 Accuri (CA, USA). Accuri's software was used to determine the percentage of cells in each cell cycle phase.

OVCAR3CIS cells [3] = experiment: RNA-seq after siRNA-mediated CASC10 knockdown; assay type: cell-based
Method: The RNA sequencing library was prepared by first extracting, total RNA using the GenElute Mammalian Total RNA Miniprep Kit (Sigma). RNA sample integrity was evaluated and RNAs with a RIN >7 were used.
RNA fragmentation was carried out for 10 minutes, followed by first-and second-strand cDNA synthesis and adenylation using the TruSeq Stranded Total RNA with Illumina Ribo-Zero Plus rRNA Depletion (Illumina, San Diego, CA). The PCR products were run on a flow cell running a 50 base paired-end (2X50) recipe. The differential expression analysis was carried out using the DESeq2 (version 1.28.1) package (R version 4.0.1). As the count data was obtained in two batches, a batch correction term was introduced in the DESeq2 model using ComBat Seq to have better statistical power and control of false positives. The Ensembl IDs were converted to gene symbols and names using the org.Hs.eg.db package (version 3.11.4). […]

CASC10-siRNA (2): siRNA targeting CASC10 RNA, SEQ ID NO 3 and 4: 5′ GACUCUUGGAUCCAAGUUU(dT)(dT) 3′ / 5′ AAACUUGGAUCCAAGAGUC(dT)(dT) 3′ (chain 1 GACUCUUGGAUCCAAGUUUNN; chain 2 AAACUUGGAUCCAAGAGUCNN; 3' dTdT overhangs, chemistry not fully specified)
reduction of invasiveness (OVCAR3CIS cells [1]): 62%
decrease of CASC10 relative expression (CASC10): 75%
reduction of cell viability (OVCAR3CIS cells [2]; 50 nM siRNA): 15%
reduction of cell viability (OVCAR3CIS cells [2]; 100 nM siRNA): 30%
cell viability (reduced to) (OVCAR3CIS cells [2]; siRNA combined with CIS 2.5 μM): 56%
cell cycle progression (SKOV3IP1CIS): cell cycle arrest in the G0/G1 to S phase
differentially expressed genes (OVCAR3CIS cells [3]; log2 fold change >1.2 or <−1.2, p-value ≤0.01, vs NC-siRNA): 32
differentially abundant transcripts exclusive of CASC10-siRNA (2) compared with NC-siRNA (OVCAR3CIS cells [3]; padj <0.01): 1,400
